Reference: patent publication US20050065066A1, “Stabilised insulin compositions” (priority 2002, published 2005)
Where two headings read alike, the source gives them in different places. Each block holds one molecule with its values, some of them ahead of it.

Tests used:
[1] = target: T1, metal site of insulin R6 hexamers (Homo sapiens, UniProt P01308); experiment: TZD-assay: fluorescence based displacement assay; type: binding
T1 construct: human insulin comprising additional amino acids, i.e. more than 51 amino acids
Method: The binding affinity of ligands to the metal site of insulin R6 hexamers are measured in a fluorescense based displacement assay. The fluorescence of 5-(4-dimethylaminobenzylidene)thiazolidine-2,4-dione (TZD) which is a ligand for the metal site of insulin R6 is quenched upon displacement from the metal site to the solution. Titration of a ligand to a stock solution of insulin R6 hexamers with this compound mounted in the metal site allows the binding affinity of these ligands to be determined measuring the fluorescence at 455 nm upon excitation at 410 nm.
Stock solution: 0.02 mM human insulin, 0.007 mM Zn-acetate, 40 mM phenol, 0.01 mM TZD in 50 mM tris buffer adjusted to pH=8.0 with NaOH/ClO4^−.
The ligand is dissolved in DMSO to a concentration of 5 mM and added in aliquots to the stock solution to final concentrations of 0-250 µM.
Fluorescence measurements were carried out on a Perkin Elmer Spectrofluorometer LS50B. T main absorption band was excited at 410 nm and emission was detected at 455 nm. The resolution was 10 nm and 2.5 nm for excitation and emission, respectively.
This equation is fitted to the datapoints ΔF(455 nm))=ΔFmax* [ligand]free/(KD(app)*(1+[TZD]/KTZD)+[ligand]free)) KD(app) is the apparent dissociation constant and Fmax is the fluorescence at maximal ligand concentration. The value of KTZD is measured separately to 230 nM
Two different fitting-procedures can be used. One in which both parameters, KD(app) and Fmax, are adjusted to best fit the data and a second in which the value of Fmax is fixed (Fmax=1) and only KD(app) is adjusted. The given data are from the second fitting procedure. The Solver module of Microsoft Excel can be used to generate the fits from the data points.

[2] = Chemical stability of insulin formulations by RPC (reverse phase chromatography); type: physicochemical; details: formulated human insulin, 3 Zn2+ per hexamer
Method: (§1) The chemical stability of insulin formulations of the invention was characterised by HPLC (RPC, reverse phase chromatography and SEC, size exclusion chromatography). As reference, insulin formulated without ligands of the invention but with 0.3% DMSO was also investigated and shown below: [drawing]
FIG. 10. Reverse phase chromatography of formulated human insulin with 3 Zn^2+ per hexamer, 30 mM phenol, 150 mM mannitol, 3 mM phosphoric acid, sodium hydroxide to pH 7.4 and 0.3% DMSO corresponding to 3 ligands per hexamer at start (upper panel) and after storage for 2 weeks at 37° C. (lower panel): Preservatives before 20 min., “hydrophilic derivatives” (desamido-insulins) 20 min to main top insulin, “hydrophobic derivatives 1” main top to 64 min., and “hydrophobic derivatives 2” (insulin dimers) after 64 min.
(§2) Storage in HPLC 1 ml vials at 45° C. (5 d), 37° C. (2 w), 30° C. (6 w), 25° C. (10 w), 15° C. (30 w) gave about the same increase of transformation products correlating to an increase in reactions constants of a factor 3-4 per 10 degree.
RPC (reverse phase chromatography) on Waters SymmetryShield RP8 column, 150×4.6 mm and 3.5 μm, eluted by A: 0.2 M sodium sulfate+0.04 M sodium phosphate pH 7.2+10% acetonitrile and isocratically (i) or a gradient (g) of B: 70% acetonitrile [minutes/% B(i/g): 0/19, 21/24(i)(sudden change), 51/24(i), 81/39(g), 81.1/0(i), 82.3/19(i)] at flow of 0.9 mL/min and 30° C.

[3] = Chemical stability of insulin formulations by SEC (size exclusion chromatography); type: physicochemical; details: formulated human insulin, 3 Zn2+ per hexamer
Method: as §1, §2
SEC (size exclusion chromatography) on Waters insulin HMWP column, 300×7.8 mm, eluted by 15:20:65 of acetic acid: acetonitrile: arginine 1 g/L at flow of 1 mL/min and ambient temperature.

[4] = affinity towards the zinc site, TZD-assay, read-out: Kd(app)

T1 sequence (P01308 25-54 limits assumed): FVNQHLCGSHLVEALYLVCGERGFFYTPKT
T1 sequence (P01308 90-110 limits assumed): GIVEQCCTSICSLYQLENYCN

- Kd [1, 4]: 3880 nM
SMILES: c1ccc2[nH]nnc2c1 [Example 1]

- hphil (hydrophilic derivatives, desamido-insulins) ([2]; 5° predicted): (0.54) % formed/year
- hphob1 (hydrophobic derivatives 1) ([2]; 5° predicted): (0.22) % formed/year
- hphob2 (hydrophobic derivatives 2, insulin dimers) ([2]; 5° predicted): (0.064) % formed/year
- hphil (hydrophilic derivatives, desamido-insulins) ([2]; 15° C.): 1.95 % formed/year
- hphob1 (hydrophobic derivatives 1) ([2]; 15° C.): 1.09 % formed/year
- hphob2 (hydrophobic derivatives 2, insulin dimers) ([2]; 15° C.): 0.42 % formed/year
- hphil (hydrophilic derivatives, desamido-insulins) ([2]; 25° C.): 6.08 % formed/year
- hphob1 (hydrophobic derivatives 1) ([2]; 25° C.): 4.99 % formed/year
- hphob2 (hydrophobic derivatives 2, insulin dimers) ([2]; 25° C.): 0.94 % formed/year
- hphil (hydrophilic derivatives, desamido-insulins) ([2]; 30° C.): 12.1 % formed/year
- hphob1 (hydrophobic derivatives 1) ([2]; 30° C.): 6.94 % formed/year
- hphob2 (hydrophobic derivatives 2, insulin dimers) ([2]; 30° C.): 3.03 % formed/year
- hphil (hydrophilic derivatives, desamido-insulins) ([2]; 37° C.): 23.7 % formed/year
- hphob1 (hydrophobic derivatives 1) ([2]; 37° C.): 14.8 % formed/year
- hphob2 (hydrophobic derivatives 2, insulin dimers) ([2]; 37° C.): 6.50 % formed/year
- hphil (hydrophilic derivatives, desamido-insulins) ([2]; 45° C.): 56.2 % formed/year
- hphob1 (hydrophobic derivatives 1) ([2]; 45° C.): 78.8 % formed/year
- hphob2 (hydrophobic derivatives 2, insulin dimers) ([2]; 45° C.): 27.0 % formed/year
- dimer ([3]; 5° predicted): (0.15) % formed/year
- dimer ([3]; 15° C.): 0.69 % formed/year
- dimer ([3]; 25° C.): 2.24 % formed/year
- dimer ([3]; 30° C.): 3.55 % formed/year
- dimer ([3]; 37° C.): 8.84 % formed/year
- dimer ([3]; 45° C.): 29.2 % formed/year
SMILES: CCN(CC)c1ccc(/C=C2\SC(=O)NC2=O)cc1 [Example 70, 5-(4-Diethylaminobenzylidene)thiazolidine-2,4-dione]

- Kd [1, 4]: 82 nM
SMILES: CCCCCOc1ccccc1/C=C1\SC(=O)NC1=O [Example 76, 5-(2-Pentyloxybenzylidene)thiazolidine-2,4-dione]

- melting point: 256 °C
SMILES: COc1cc(/C=C2\SC(=O)NC2=O)cc(I)c1O [Example 167, 5-(4-Hydroxy-3-iodo-5-methoxybenzylidene)thiazolidine-2,4-dione]

- melting point: 310 to 314 °C
SMILES: O=C1NC(=O)/C(=C/c2ccc3cc(O)ccc3c2)S1 [Example 171, 5-(6-Hydroxy-2-naphthylmethylene)thiazolidine-2,4-dione]

- melting point: 330 to 333 °C
SMILES: O=C1NC(=O)C(=Cc2c[nH]c3ccc([N+](=O)[O-])cc23)S1 [Example 199, 5-(5-Nitro-1H-indol-3-ylmethylene)thiazolidine-2,4-dione]

- melting point: 152 to 154 °C
SMILES: O=C1NC(=O)/C(=C/c2c(Cl)cccc2Cl)S1 [Example 229, 5-(2,6-Dichlorobenzylidene)thiazolidine-2,4-dione]

- melting point: 331 to 333 °C
SMILES: COc1cc(O)cc(OC)c1/C=C1\SC(=O)NC1=O [Example 234, 5-(4-Hydroxy-2,6-dimethoxybenzylidene)thiazolidine-2,4-dione]

- melting point: 104 to 105 °C
SMILES: Cc1cccc(C)c1/C=C1\SC(=O)NC1=O [Example 235, 5-(2,6-Dimethylbenzylidene)thiazolidine-2,4-dione]

- melting point: 241 to 242 °C
SMILES: COc1cccc(OC)c1/C=C1\SC(=O)NC1=O [Example 236, 5-(2,6-Dimethoxybenzylidene)thiazolidine-2,4-dione]

- melting point: 255 to 256 °C
SMILES: COc1cc(OCc2c(F)cccc2[N+](=O)[O-])cc(OC)c1C=C1SC(=O)NC1=O [Example 237, 5-[4-(2-Fluoro-6-nitrobenzyloxy)-2,6-dimethoxybenzylidene]thiazolidine-2,4-dione]

- melting point: 265 to 266 °C
SMILES: O=C1NC(=O)/C(=C/c2cc3ccccc3o2)S1 [Example 238, 5-Benzofuran-2-ylmethylenethiazolidine-2,4-dione]

- melting point: 259 to 263 °C
SMILES: CN(C)c1ccc(/C=C/C=C2\SC(=O)NC2=O)cc1 [Example 239, 5-[3-(4-Dimethylaminophenyl)allylidene]thiazolidine-2,4-dione]

- melting point: 203 to 210 °C
SMILES: CC(/C=C1\SC(=O)NC1=O)=C\c1ccccc1 [Example 240, 5-(2-Methyl-3-phenylallylidene)thiazolidine-2,4-dione]

- melting point: 251 to 254 °C
SMILES: O=C1NC(=O)/C(=C/C(Cl)=C/c2ccccc2)S1 [Example 241, 5-(2-Chloro-3-phenylallylidene)thiazolidine-2,4-dione]

- melting point: 338 to 347 °C
SMILES: O=C1NC(=O)/C(=C/c2cc3ccccc3[nH]c2=O)S1 [Example 242, 5-(2-Oxo-1,2-dihydroquinolin-3-ylmethylene)thiazolidine-2,4-dione]

- hphil (hydrophilic derivatives, desamido-insulins) ([2]; 5° predicted): (0.287) % formed/year
- hphob1 (hydrophobic derivatives 1) ([2]; 5° predicted): (0.153) % formed/year
- hphob2 (hydrophobic derivatives 2, insulin dimers) ([2]; 5° predicted): (0.044) % formed/year
- hphil (hydrophilic derivatives, desamido-insulins) ([2]; 15° C.): 1.14 % formed/year
- hphob1 (hydrophobic derivatives 1) ([2]; 15° C.): 0.67 % formed/year
- hphob2 (hydrophobic derivatives 2, insulin dimers) ([2]; 15° C.): 0.29 % formed/year
- hphil (hydrophilic derivatives, desamido-insulins) ([2]; 25° C.): 2.86 % formed/year
- hphob1 (hydrophobic derivatives 1) ([2]; 25° C.): 4.78 % formed/year
- hphob2 (hydrophobic derivatives 2, insulin dimers) ([2]; 25° C.): 0.99 % formed/year
- hphil (hydrophilic derivatives, desamido-insulins) ([2]; 30° C.): 5.12 % formed/year
- hphob1 (hydrophobic derivatives 1) ([2]; 30° C.): 7.11 % formed/year
- hphob2 (hydrophobic derivatives 2, insulin dimers) ([2]; 30° C.): 1.99 % formed/year
- hphil (hydrophilic derivatives, desamido-insulins) ([2]; 37° C.): 11.2 % formed/year
- hphob1 (hydrophobic derivatives 1) ([2]; 37° C.): 20.0 % formed/year
- hphob2 (hydrophobic derivatives 2, insulin dimers) ([2]; 37° C.): 7.02 % formed/year
- hphil (hydrophilic derivatives, desamido-insulins) ([2]; 45° C.): 29.9 % formed/year
- hphob1 (hydrophobic derivatives 1) ([2]; 45° C.): 52.6 % formed/year
- hphob2 (hydrophobic derivatives 2, insulin dimers) ([2]; 45° C.): 23.4 % formed/year
- dimer ([3]; 5° predicted): (0.057) % formed/year
- dimer ([3]; 15° C.): 0.33 % formed/year
- dimer ([3]; 25° C.): 1.20 % formed/year
- dimer ([3]; 30° C.): 2.34 % formed/year
- dimer ([3]; 37° C.): 6.50 % formed/year
- dimer ([3]; 45° C.): 23.4 % formed/year
SMILES: O=C(O)COc1cccc(/C=C2\SC(=O)NC2=O)c1 [Example 461, [3-(2,4-Dioxothiazolidin-5-ylidenemethyl)phenoxy]acetic acid]

- Kd [1, 4]: 68 nM
SMILES: O=C(O)COc1ccc(/C=C2\SC(=O)NC2=O)c2ccccc12 [Example 476, [4-(2,4-Dioxothiazolidin-5-ylidenemethyl)naphthalen-1-yloxy]acetic acid]

- melting point: 200 to 202 °C
SMILES: c1cc(COc2ccc3ccccc3c2)cc(-c2nnn[nH]2)c1 [Example 572, 5-(3-(Naphthalen-2-yloxymethyl)-phenyl)-1H-tetrazole]

- Kd [1, 4]: 23 nM
SMILES: Fc1ccc(Cn2c3ccccc3c3cc(-c4nn[nH]n4)ccc32)c(F)c1 [Example 759, 9-(2,4-Difluorobenzyl)-3-(2H-tetrazol-5-yl)-9H-carbazole]

SMILES: CN(C)c1ccc(/C=C2\SC(=O)NC2=O)cc1 [TZD, 5-(4-dimethylaminobenzylidene)thiazolidine-2,4-dione, reference compound]
- Kd ([1]; measured separately, read-out: KTZD): 230 nM
